System: NCI-H226 complex tumor spheroids, viability
Test: Anticancer human tumor NCI-H226 cell line growth inhibition;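 note: spheroids exposed to compound for 7 days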;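 for viability, T/C: 100% = DMSO vehicle control viability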
Settings: for IC50: curve of first compound; for viability, T/C: stronger effect = lower value
Summary of the method: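 Complex tumor spheroids combined malignant cells with endothelial cells and mesenchymal stem cells. DNA-damaging drugs and DNA repair inhibitors were tested alone and in combination, at half-log dilutions down from clinical Cmax (top 10 microM if Cmax unknown), 0.25% DMSO final.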

Compound `COc1ccc([C@@H](O)c2cc(-c3ncnc4cc(N5CCOCC5)ccc34)c(F)cc2Cl)nn1` + COc1cc2c(cc1O)CCNC21CSC2c3c(OC(C)=O)c(C)c4c(c3C(COC1=O)N1C(O)C3Cc5cc(C)c(OC)c(O)c5C(C21)N3C)OCO4 has an IC50 (second compound 30 pM) of 6.37 µM, an IC50 (second compound 94.9 pM) of 4.02 µM and an IC50 (second compound 0.0003 µM) of 4.26 µM. For the same compound, the IC50 (second compound 0.000949 µM) was 0.756 µM, the IC50 (second compound 0.003 µM) was under 0.0316 µM and the viability, T/C (second compound 30 pM, first compound 0.0316 µM) was 115%. It also gave a viability, T/C (second compound 30 pM, first compound 0.1 µM) of 108%, a viability, T/C (second compound 30 pM, first compound 0.316 µM) of 81.2% and a viability, T/C (second compound 30 pM, first compound 1 µM) of 80.5%. The viability, T/C (second compound 30 pM, first compound 3.16 µM) was 58%, the viability, T/C (second compound 30 pM, first compound 10 µM) was 43.6% and the viability, T/C (second compound 94.9 pM, first compound 0.0316 µM) was 99.8%. The viability, T/C (second compound 94.9 pM, first compound 0.1 µM) was 105%, the viability, T/C (second compound 94.9 pM, first compound 0.316 µM) was 106% and the viability, T/C (second compound 94.9 pM, first compound 1 µM) was 76.5%. For the same compound, the viability, T/C (second compound 94.9 pM, first compound 3.16 µM) was 54.6%, the viability, T/C (second compound 94.9 pM, first compound 10 µM) was 43.5% and the viability, T/C (second compound 0.0003 µM, first compound 0.0316 µM) was 126%. It also gave a viability, T/C (second compound 0.0003 µM, first compound 0.1 µM) of 130%, a viability, T/C (second compound 0.0003 µM, first compound 0.316 µM) of 122% and a viability, T/C (second compound 0.0003 µM, first compound 1 µM) of 95.4%. The viability, T/C (second compound 0.0003 µM, first compound 3.16 µM) was 54.7%, the viability, T/C (second compound 0.0003 µM, first compound 10 µM) was 37.5% and the viability, T/C (second compound 0.000949 µM, first compound 0.0316 µM) was 107%. It also gave a viability, T/C (second compound 0.000949 µM, first compound 0.1 µM) of 112%, a viability, T/C (second compound 0.000949 µM, first compound 0.316 µM) of 93.6% and a viability, T/C (second compound 0.000949 µM, first compound 1 µM) of 36.4%. The viability, T/C (second compound 0.000949 µM, first compound 3.16 µM) was 0.51%, the viability, T/C (second compound 0.000949 µM, first compound 10 µM) was 0.24% and the viability, T/C (second compound 0.003 µM, first compound 0.0316 µM) was 1.01%. For the same compound, the viability, T/C (second compound 0.003 µM, first compound 0.1 µM) was 0.79%, the viability, T/C (second compound 0.003 µM, first compound 0.316 µM) was 0.98% and the viability, T/C (second compound 0.003 µM, first compound 1 µM) was 0.69%. It also gave a viability, T/C (second compound 0.003 µM, first compound 3.16 µM) of 0.74% and a viability, T/C (second compound 0.003 µM, first compound 10 µM) of 1.08%.

In the case of `O=C(c1cc(Cc2n[nH]c(=O)c3ccccc23)ccc1F)N1CCN(C(=O)C2CC2)CC1` + CC[C@@]1(O)C(=O)OCc2c1cc1n(c2=O)Cc2cc3c(CN(C)C)c(O)ccc3nc2-1, the IC50 (second compound 0.003 µM) is reported as over 30 µM, the IC50 (second compound 0.00949 µM) is reported as over 30 µM and the IC50 (second compound 0.03 µM) is reported as over 30 µM. The IC50 (second compound 0.0949 µM) was over 30 µM, the IC50 (second compound 0.3 µM) was over 30 µM and the viability, T/C (second compound 0.003 µM, first compound 0.0949 µM) was 103%. For the same compound, the viability, T/C (second compound 0.003 µM, first compound 0.3 µM) was 95.8%, the viability, T/C (second compound 0.003 µM, first compound 0.949 µM) was 100% and the viability, T/C (second compound 0.003 µM, first compound 3 µM) was 106%. For the same compound, the viability, T/C (second compound 0.003 µM, first compound 9.49 µM) was 97.9%, the viability, T/C (second compound 0.003 µM, first compound 30 µM) was 100% and the viability, T/C (second compound 0.00949 µM, first compound 0.0949 µM) was 94.7%. The viability, T/C (second compound 0.00949 µM, first compound 0.3 µM) was 91.2%, the viability, T/C (second compound 0.00949 µM, first compound 0.949 µM) was 95.9% and the viability, T/C (second compound 0.00949 µM, first compound 3 µM) was 91%. The viability, T/C (second compound 0.00949 µM, first compound 9.49 µM) was 85.9%, the viability, T/C (second compound 0.00949 µM, first compound 30 µM) was 81.1% and the viability, T/C (second compound 0.03 µM, first compound 0.0949 µM) was 88.9%. For the same compound, the viability, T/C (second compound 0.03 µM, first compound 0.3 µM) was 90.4%, the viability, T/C (second compound 0.03 µM, first compound 0.949 µM) was 90.1% and the viability, T/C (second compound 0.03 µM, first compound 3 µM) was 91.2%. It also gave a viability, T/C (second compound 0.03 µM, first compound 9.49 µM) of 96.5%, a viability, T/C (second compound 0.03 µM, first compound 30 µM) of 89.9% and a viability, T/C (second compound 0.0949 µM, first compound 0.0949 µM) of 78.4%. For the same compound, the viability, T/C (second compound 0.0949 µM, first compound 0.3 µM) was 74.4%, the viability, T/C (second compound 0.0949 µM, first compound 0.949 µM) was 80.2% and the viability, T/C (second compound 0.0949 µM, first compound 3 µM) was 79.8%. It also gave a viability, T/C (second compound 0.0949 µM, first compound 9.49 µM) of 74.9%, a viability, T/C (second compound 0.0949 µM, first compound 30 µM) of 78.8% and a viability, T/C (second compound 0.3 µM, first compound 0.0949 µM) of 68.9%. For the same compound, the viability, T/C (second compound 0.3 µM, first compound 0.3 µM) was 68.7%, the viability, T/C (second compound 0.3 µM, first compound 0.949 µM) was 72.7% and the viability, T/C (second compound 0.3 µM, first compound 3 µM) was 66.8%. It also gave a viability, T/C (second compound 0.3 µM, first compound 9.49 µM) of 70.6% and a viability, T/C (second compound 0.3 µM, first compound 30 µM) of 60.7%.

Reference: PubChem BioAssay AID1845210 (Molecular Pharmacology Branch, DTP, NCI, 2023)
